How the values were obtained:
CCK receptor = CCK receptor antagonism in isolated fundic circular muscle from guinea pig stomach; format: cell-based; settings: test compound 1×10^-6 M, CCK-8 3.2×10^-7 M, 37° C.
Method: (A) CCK receptor antagonism in isolated fundic circular muscle from guinea pig stomach
The strip of circular muscle suspended in 25 ml organ bath containing Krebs' bicarbonate solution (NaCl 118 mM, KCl 4.8 mM, KH2 PO4 1.2 mM, MgSO4 1.2 mM, CaCl2 2.5 mM, NaHCO3 25 mM, glucose 11 mM and bovine serum albumin 0.1%) maintained at 37° C. and gassed with 95% O2 and 5% CO2.
The strip was placed under an initial tension of 0.5 g and equilibrated for 60 minutes during which the bath volume was replaced every 15 minutes. Isometric contraction was measured using a force transducer. CCK-8 (3.2×10^-7 M) was added to the bathing solution and the contractile force was measured After washing out CCK-8, test compound A (1×10^-6 M) was added. 5 minutes later, CCK-8 was added and the contractile force was measured. CCK antagonism was calculated by comparing the contractile force induced by CCK in the absence or presence of test compound A.

[1] = system: caerulein-induced pancreatitis; assay: Inhibitory effect on caerulein-induced pancreatitis in mice; format: in vivo; settings: Mus musculus
Description: (D) Inhibitory effect of test compound B on caerulein-induced pancreatitis in mice.

[2] = biological target: T1, rat pancreatic CCK receptors (Rattus norvegicus, UniProt P30551); assay: Inhibition of binding of [125I] CCK-8 to rat pancreatic CCK receptors
T1 construct: rat pancreatic CCK receptors; from tissue; host or cells: rat pancreas
T1 sequence (P30551 1-444): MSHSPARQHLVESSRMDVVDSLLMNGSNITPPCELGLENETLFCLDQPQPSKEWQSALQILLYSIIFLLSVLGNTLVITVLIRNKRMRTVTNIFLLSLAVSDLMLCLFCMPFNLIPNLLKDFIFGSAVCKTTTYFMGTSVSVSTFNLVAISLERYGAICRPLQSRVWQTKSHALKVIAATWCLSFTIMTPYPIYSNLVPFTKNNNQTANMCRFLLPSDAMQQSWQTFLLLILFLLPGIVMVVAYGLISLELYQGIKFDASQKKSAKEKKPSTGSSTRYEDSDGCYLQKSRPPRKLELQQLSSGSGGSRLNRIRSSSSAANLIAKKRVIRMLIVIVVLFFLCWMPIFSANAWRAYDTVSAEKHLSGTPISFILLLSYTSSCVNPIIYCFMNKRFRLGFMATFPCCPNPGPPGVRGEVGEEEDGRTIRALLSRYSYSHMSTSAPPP
Description: (B) Inhibition of binding of [^125 I] CCK-8 to rat pancreatic CCK receptors by test compound B (CCK antagonism).

[3] = system: CCK-8-induced inhibition of gastric emptying; assay: Effect upon CCK-8-induced inhibition of gastric emptying in mice (CCK antagonism); format: in vivo; settings: Mus musculus
Description: Effect of test compound B upon CCK-8-induced inhibition of gastric emptying in mice (CCK antagonism).

[4] = biological target: T2, guinea pig cerebral cortical CCK receptors (Cavia porcellus, UniProt H0VZC5); assay: Inhibition of binding of [125I] CCK-8 to guinea pig cerebral cortical CCK receptors
T2 construct: guinea pig cerebral cortical CCK receptors; from tissue; host or cells: guinea pig cerebral cortex
T2 sequence (H0VZC5 entry or part of it): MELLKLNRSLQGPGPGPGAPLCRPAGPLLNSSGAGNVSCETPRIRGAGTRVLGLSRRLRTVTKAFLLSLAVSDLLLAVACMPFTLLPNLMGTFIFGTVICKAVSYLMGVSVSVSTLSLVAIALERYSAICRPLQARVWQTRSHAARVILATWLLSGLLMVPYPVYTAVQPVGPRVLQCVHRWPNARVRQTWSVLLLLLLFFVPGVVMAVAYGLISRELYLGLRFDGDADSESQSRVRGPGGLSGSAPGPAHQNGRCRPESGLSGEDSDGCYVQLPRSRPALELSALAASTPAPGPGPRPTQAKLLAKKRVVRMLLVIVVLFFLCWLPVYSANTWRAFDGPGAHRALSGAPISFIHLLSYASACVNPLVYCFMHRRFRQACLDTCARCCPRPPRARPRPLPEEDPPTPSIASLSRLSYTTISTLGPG
Description: (C) Inhibition of binding of [^125 I] CCK-8 to guinea pig cerebral cortical CCK receptors by test compound B (CCK antagonism).

Structure (SMILES) | Inhibition (%) of CCK-8-induced contraction (CCK receptor) | ED50 [1] | IC50 [2] | ED50 [3] | IC50 [4]
O=C(NC1N=C(c2ccccc2F)c2cccc3c2N(CC3)C1=O)c1cc2ccccc2[nH]1 (racemic) [test compound A, (3RS)-1-(2-Fluorophenyl)-3,4,6,7-tetrahydro-3-(2-indolylcarbonylamino)-4-oxopyrrolo[3,2,1-jk][1,4]benzodiazepine] | 90.4% |  |  |  | 
O=C(N[C@H]1N=C(c2ccccc2F)c2cccc3c2N(CC3)C1=O)c1cc2ccccc2[nH]1 [test compound B, (3S)-1-(2-Fluorophenyl)-3,4,6,7,-tetrahydro-3-(2-indolylcarbonylamino)-4-oxopyrrolo[3,2,1-jk][1,4]-benzodiazepine] |  | 0.022 mg/kg | 0.67 nM | 0.01 mg/kg | 31 nM

Source: patent publication US4981847A, “Tricyclic compounds” (Fujisawa Pharmaceutical Co., Ltd., priority 1988, dated 1991)
